Source: US20070249556A1, “METHOD OF TREATING INFLAMMATION” (priority 2006, published 2007)

Tests used:
neutrophils [1] = assay: LPS model of acute pulmonary inflammation in rat; assay type: in vivo
Excerpt: The administration of lipopolysaccharides (LPS) from gram-negative bacteria cell walls to the lungs of rats results in a rapid increase in the total number of leukocytes in the lumen of the lungs. The increase of neutrophils in the lung in the LPS model represents the conditions present a patients with chronic respiratory diseases such as cystic fibrosis, chronic bronchitis, emphysema, and certain subtypes of asthma. The LPS model of acute pulmonary inflammation is a well-established model for testing compounds having potential activities in treating inflammatory airway diseases.
Compound 11 (35 mg/kg) or vehicle (0.5% aqueous methylcellulose) was orally administered to groups of rats 15 minutes prior to pulmonary aerosolized LPS (˜2 micrograms/rat) or placebo (air) exposure (20 minute exposure) and 2.5 and 5 hours following the initial oral administration. Eight hours after pulmonary administration of aerosolized LPS, the lungs were lavaged to obtain bronchoalveolar lavage fluid, containing accumulated leukocytes.

neutrophils [2] = assay: Inhibition of neutrophil chemotaxis (Boyden type chemotaxis chamber); assay type: cell-based, human; details: isolated neutrophils, chemoattractant in lower chamber, one to three hours at 37 C, effective concentrations of inhibitor
Description: Neutrophils were isolated from peripheral blood donated by healthy volunteers. Twenty milliliters of whole blood containing ACD ([…]) as an anticoagulant was layered over twenty milliliters Ficoll-Pacque Plus (Stem Cell Technologies, Vancouver, BC) and centrifuged for 45 minutes at 1500 rpm. Following centrifugation, the red blood cell layer (also containing the granulocytes) at the bottom of the tube was retained in the centrifugation tube while the top layers were removed. The red blood cell and granulocytes were combined with an equal volume of 3% Dextran 500 (Amersham Biosciences, Uppsala, Sweden) and mixed gently. The red blood cells were allowed to sediment for 30 minutes. […] The cells were resuspended in Hank's Balanced Salt Solution (HBSS, Invitrogen, Grand Island, N.Y.), and counted on a hemacytometer. […] Cell viability was determined through trypan blue exclusion and was greater than 95%. […]
Chemoattractant compounds (e.g. fMLP) are prepared as 20 mM stock solutions and dissolved in either DMSO or water. […] The number of migrated cells is determined by microscopy and counting the number of cells per high powered field.
Inhibitors of neutrophil chemotaxis are identified using a Boyden type chemotaxis chamber. […] The number of migrated cells is determined by microscopy and counting the number of cells per high powered field.

Q: Which results are given for CCNC(=O)Nc1ncnc2c1ncn2C1OC(CCC(=O)O)C2OC(/C=C/c3ccccc3)OC21 (stereo not drawn) [Compound 11, trans-3-{6-[6-(3-ethyl-ureido)-purin-9-yl]-2-styryl-tetrahydro-furo[3,4-d][1,3]dioxol-4-yl}-propionic acid]?
A: number of neutrophils found in the lumen of the lungs (FIG. 1) (neutrophils [1]; rats treated with compound compared with animals not receiving it, acute model of pulmonary inflammation): significant reduction; decrease in the number of neutrophils recovered in the lavage fluid (neutrophils [1]; rats, 35 mg/kg oral 15 min prior to aerosolized LPS and 2.5 and 5 hours after first dose, lavage 8 hours after LPS, vs vehicle and LPS, p<0.001): 56.6%; number of migrated neutrophils (neutrophils [2]): significant decrease
